# Experimental data from patent US8445636B2, “Antimicrobial and anticancer lipopeptides” (Yeda Research & Development Co. Ltd., priority 2003, dated 2013).
# Like-named read-outs stand apart in the source and are kept apart here. Non-standard residues stand in square brackets, D forms with d. Residues, ends and D or L forms follow the SMILES beside them. *: point of attachment. Lauroyl = CCCCCCCCCCCC(=O)*
# Key:
# Type in all cases: cell-based
# [1] = test system: Aspergillus fumigatus ATCC 26430; test: microbe, parasite or virus in culture
# [2] = test system: Cryptococcus neoformans ATCC MYA-422; test: microbe, parasite or virus in culture; settings: Cryptococcus neoformans; Table 9, short lipopeptides; pH 7.4; mean of 3 experiments, standard deviation of 25%; read-out: Minimal Inhibitory Concentration, Cyrptococcus neoformans (ATCC MYA-422)
# [3] = test system: Cryptococcus neoformans ATCC 66031; test: microbe, parasite or virus in culture
# Procedure: (§1) The antifungal activity of the lipopeptides was examined in sterile 96-well plates (Nunc F96 microtiter plates) in a final volume of 200 μL as follows: 100 µl of a suspension containing fungi at a concentration of 1×10^4 Colony-Forming Units (CFU)/ml in culture medium (RPMI 1640, 0.165 M MOPS with L-glutamine, without NaHCO3) at pH 7.4 or pH 5.5 (adjustment of the pH was done by diluted solutions of HCl and NaOH) were added to 100 μl of water containing the peptide in serial 2-fold dilutions in water. The fungi were incubated in the presence of the lipopeptides for 24-48 h at 35° C. in a Binder KB115 incubator under agitation. Growth inhibition was determined by measuring the absorbance at 620 nm with a Microplate autoreader E1309 (Bio-Tek Instruments). Antifungal activity is expressed as the minimal inhibitory concentration (MIC), the concentration at which 100% inhibition of fungi growth was observed after the incubation time mentioned above. The fungi used were: Aspergillus niger ATCC 9642, Candida albicans ATCC 10231 and Cryptococcus neoformans ATCC 66031. If not indicated otherwise, the fungi growth was detected at pH 7.4.
# [4] = test system: Candida albicans ATCC 10231; test: microbe, parasite or virus in culture
# Procedure: as §1
# E. coli D21 = test system: E. coli D21
# [5] = test system: Pseudomonas aeruginosa ATCC 27853
# Procedure: (§2) The antibacterial activity of the lipopeptides was examined in sterile 96-well plates (Nunc F96 microtiter plates) in a final volume of 100 μl as follows: Aliquots (50 μl) of a suspension containing bacteria at concentration of 1×10^6 Colony-Forming Units (CFU)/ml in culture LB (Lauria broth) medium (pH 7.4 or pH 5.5) were added to 50 μl of water containing the lipopeptide in serial 2-fold dilutions in water. Adjustment of the pH was done by diluted solutions of HCl and NaOH Inhibition of growth was determined by measuring the absorbance at 600 nm with a Microplate autoreader E1309 (Bio-Tek Instruments), after an incubation time of 18-20 h at 37° C. Antibacterial activities were expressed as the minimal inhibitory concentration (MIC), the concentration at which 100% inhibition of growth was observed after 18-20 h of incubation. The bacteria used were: Escherichia coli ATCC 25922, Acinetobacter baumannii ATCC 19606, Pseudomonas aeruginosa ATCC 27853, Staphylococcus aureus ATCC 6538P, Enterococcus faecalis ATCC 29212, Enterobacter cloacae ATCC 49141. The antibacterial activity of lipopeptides was also examined against resistant bacteria: methicilin-resistant Staphylococcus aureus (MRSA) ATCC 700698 and vancomycin-resistant Enterococcus faecium (VRE) ATCC 700221. If not indicated otherwise, the bacterial growth was detected at pH 7.4.
# [6] = test system: Acinetobacter baumannii ATCC 19606
# Procedure: as §2
# [7] = test system: Staphylococcus aureus ATCC 6538P
# Procedure: as §2
# [8] = test system: Escherichia coli ATCC 25922
# Procedure: as §2
compound,measurement,setting,value
"C[C@@H]1[C@H](O)[C@@H](C)/C=C/C=C/C=C/C=C/C=C/C=C/C=C/[C@H](O[C@@H]2O[C@H](C)[C@@H](O)[C@H](N)[C@@H]2O)C[C@@H]2O[C@](O)(C[C@@H](O)C[C@@H](O)[C@H](O)CC[C@@H](O)C[C@@H](O)CC(=O)O[C@H]1C)C[C@H](O)[C@H]2C(=O)O [Amphotericin, reference compound]",MIC,"[1]; Aspergillus fumigatus, ATCC26430, Table 9, short lipopeptides, pH 7.4, mean of 3 experiments, standard deviation of 25%, read-out: Minimal Inhibitory Concentration, Aspergillus Fomigatus (ATCC 26430)",1.25 µM
same,MIC,"[1]; Aspergillus fumigatus, ATCC26430, Table 12, with serum, pH 7.4, read-out: Minimal inhibitory concentrations, A. Fumig. With serum",< 0.78 µM
same,MIC,"[1]; Aspergillus fumigatus, ATCC26430, Table 12, without serum, pH 7.4, read-out: Minimal inhibitory concentrations, A. Fumig. Without serum",2.34 µM
same,MIC,"[1]; Aspergillus fumigatus, ATCC26430, Table 13, pH 5.5, with serum, read-out: Minimal inhibitory concentrations, A. Fumig. With serum",< 0.78 µM
same,MIC,"[1]; Aspergillus fumigatus, ATCC26430, Table 13, pH 5.5, without serum, read-out: Minimal inhibitory concentrations, A. Fumig. Without serum",3.12 µM
same,MIC,[2],0.312 µM
same,MIC,"[3]; Cryptococcus neoformans, ATCC66031, Table 12, with serum, pH 7.4, read-out: Minimal inhibitory concentrations, C. Neofor. With serum",< 0.78 µM
same,MIC,"[3]; Cryptococcus neoformans, ATCC66031, Table 12, without serum, pH 7.4, read-out: Minimal inhibitory concentrations, C. Neofor. Without serum",< 0.78 µM
same,MIC,"[3]; Cryptococcus neoformans, ATCC66031, Table 13, pH 5.5, with serum, read-out: Minimal inhibitory concentrations, C. Neofor. With serum",< 0.78 µM
same,MIC,"[3]; Cryptococcus neoformans, ATCC66031, Table 13, pH 5.5, without serum, read-out: Minimal inhibitory concentrations, C. Neofor. Without serum",3.12 µM
same,MIC,"[4]; Candida albicans, ATCC10231, Table 9, short lipopeptides, pH 7.4, mean of 3 experiments, standard deviation of 25%, read-out: Minimal Inhibitory Concentration, Candida Albicans (ATCC 10231)",0.625 µM
same,MIC,"[4]; Candida albicans, ATCC10231, Table 12, with serum, pH 7.4, read-out: Minimal inhibitory concentrations, C. Albicans With serum",0.78 µM
same,MIC,"[4]; Candida albicans, ATCC10231, Table 12, without serum, pH 7.4, read-out: Minimal inhibitory concentrations, C. Albicans Without serum",3.12 µM
same,MIC,"[4]; Candida albicans, ATCC10231, Table 13, pH 5.5, with serum, read-out: Minimal inhibitory concentrations, C. Albicans With serum",0.78 µM
same,MIC,"[4]; Candida albicans, ATCC10231, Table 13, pH 5.5, without serum, read-out: Minimal inhibitory concentrations, C. Albicans Without serum",9.38 µM
"CCCCCCCCCCCC(=O)N[C@H](CC(C)C)C(=O)N[C@@H](Cc1c[nH]cn1)C(=O)N[C@@H](Cc1c[nH]cn1)C(=O)N[C@H](CC(C)C)C(=O)N[C@H](CC(C)C)C(=O)N[C@@H](Cc1c[nH]cn1)C(=O)N[C@@H](Cc1c[nH]cn1)C(=O)N[C@H](CC(C)C)C(=O)N[C@H](CC(C)C)C(=O)N[C@@H](Cc1c[nH]cn1)C(=O)N[C@@H](Cc1c[nH]cn1)C(=O)N[C@H](CC(C)C)C(N)=O [lipopeptide 26, (CH3-(CH2)10-CO-)-D-Leu-His-His-D-Leu-D-Leu-His-His-D-Leu-D-Leu-His-His-D-Leu-NH2] (Lauroyl-[dL]HH[dL][dL]HH[dL][dL]HH[dL]-NH2)","Minimal inhibitory concentrations, E. Coli D21","E. coli D21; Table 6, pH 7.4",>100 µM
same,"Minimal inhibitory concentrations, E. Coli D21","E. coli D21; Table 7, pH 5.5",100 µM
same,MIC,"[1]; Table 12, with serum, pH 7.4, read-out: Minimal inhibitory concentrations, A. Fumig. With serum",100 µM
same,MIC,"[1]; Table 12, without serum, pH 7.4, read-out: Minimal inhibitory concentrations, A. Fumig. Without serum",>100 µM
same,MIC,"[1]; Table 13, pH 5.5, with serum, read-out: Minimal inhibitory concentrations, A. Fumig. With serum",100 µM
same,MIC,"[1]; Table 13, pH 5.5, without serum, read-out: Minimal inhibitory concentrations, A. Fumig. Without serum",6.25 µM
same,MIC,"[3]; Table 12, with serum, pH 7.4, read-out: Minimal inhibitory concentrations, C. Neofor. With serum",100 µM
same,MIC,"[3]; Table 12, without serum, pH 7.4, read-out: Minimal inhibitory concentrations, C. Neofor. Without serum",12.5 µM
same,MIC,"[3]; Table 13, pH 5.5, with serum, read-out: Minimal inhibitory concentrations, C. Neofor. With serum",50 µM
same,MIC,"[3]; Table 13, pH 5.5, without serum, read-out: Minimal inhibitory concentrations, C. Neofor. Without serum",3.125 µM
same,MIC,"[4]; Table 12, with serum, pH 7.4, read-out: Minimal inhibitory concentrations, C. Albicans With serum",>100 µM
same,MIC,"[4]; Table 12, without serum, pH 7.4, read-out: Minimal inhibitory concentrations, C. Albicans Without serum",>100 µM
same,MIC,"[4]; Table 13, pH 5.5, with serum, read-out: Minimal inhibitory concentrations, C. Albicans With serum",>100 µM
same,MIC,"[4]; Table 13, pH 5.5, without serum, read-out: Minimal inhibitory concentrations, C. Albicans Without serum",9.375 µM
same,"Minimal inhibitory concentrations, P. Aeruginosa ATCC 27853","[5]; Table 6, pH 7.4",>100 µM
same,"Minimal inhibitory concentrations, P. Aeruginosa ATCC 27853","[5]; Table 7, pH 5.5",100 µM
same,"Minimal inhibitory concentrations, A. baumannii ATCC 19606","[6]; Table 6, pH 7.4",100 µM
same,"Minimal inhibitory concentrations, A. baumannii ATCC 19606","[6]; Table 7, pH 5.5",>100 µM
same,"Minimal inhibitory concentrations, S. aureus II ATCC 6538P","[7]; Table 6, pH 7.4",100 µM
same,"Minimal inhibitory concentrations, S. aureus II ATCC 6538P","[7]; Table 7, pH 5.5",>100 µM
same,"Minimal inhibitory concentrations, E. Coli ATCC 25922","[8]; Table 6, pH 7.4",>100 µM
same,"Minimal inhibitory concentrations, E. Coli ATCC 25922","[8]; Table 7, pH 5.5",>100 µM
"CCCCCCCCCCCC(=O)N[C@H](CC(C)C)C(=O)N[C@@H](CCCNC(=N)N)C(=O)N[C@@H](Cc1c[nH]cn1)C(=O)N[C@H](CC(C)C)C(=O)N[C@H](CC(C)C)C(=O)N[C@@H](CCCNC(=N)N)C(=O)N[C@@H](Cc1c[nH]cn1)C(=O)N[C@H](CC(C)C)C(=O)N[C@H](CC(C)C)C(=O)N[C@@H](CCCNC(=N)N)C(=O)N[C@@H](Cc1c[nH]cn1)C(=O)N[C@H](CC(C)C)C(N)=O [lipopeptide 27, (CH3-(CH2)10-CO-)-D-Leu-Arg-His-D-Leu-D-Leu-Arg-His-D-Leu-D-Leu-Arg-His-D-Leu-NH2] (Lauroyl-[dL]RH[dL][dL]RH[dL][dL]RH[dL]-NH2)","Minimal inhibitory concentrations, E. Coli D21","E. coli D21; D21, pH 5.5",100 µM
same,"Minimal inhibitory concentrations, E. Coli D21","E. coli D21; D21, pH 7.4",100 µM
same,MIC,"[1]; ATCC 26430, pH 5.5, read-out: Minimal inhibitory concentrations, A. Fumig. With serum",100 µM
same,MIC,"[1]; ATCC 26430, pH 5.5, read-out: Minimal inhibitory concentrations, A. Fumig. Without serum",6.25 µM
same,MIC,"[1]; ATCC 26430, pH 7.4, read-out: Minimal inhibitory concentrations, A. Fumig. With serum",100 µM
same,MIC,"[1]; ATCC 26430, pH 7.4, read-out: Minimal inhibitory concentrations, A. Fumig. Without serum",25 µM
same,MIC,"[3]; ATCC 66031, pH 5.5, read-out: Minimal inhibitory concentrations, C. Neofor. With serum",25 µM
same,MIC,"[3]; ATCC 66031, pH 5.5, read-out: Minimal inhibitory concentrations, C. Neofor. Without serum",1.56 µM
same,MIC,"[3]; ATCC 66031, pH 7.4, read-out: Minimal inhibitory concentrations, C. Neofor. With serum",25 µM
same,MIC,"[3]; ATCC 66031, pH 7.4, read-out: Minimal inhibitory concentrations, C. Neofor. Without serum",3.125 µM
same,MIC,"[4]; ATCC 10231, pH 5.5, read-out: Minimal inhibitory concentrations, C. Albicans With serum",>100 µM
same,MIC,"[4]; ATCC 10231, pH 5.5, read-out: Minimal inhibitory concentrations, C. Albicans Without serum",25 µM
same,MIC,"[4]; ATCC 10231, pH 7.4, read-out: Minimal inhibitory concentrations, C. Albicans With serum",>100 µM
same,MIC,"[4]; ATCC 10231, pH 7.4, read-out: Minimal inhibitory concentrations, C. Albicans Without serum",12.5 µM
same,"Minimal inhibitory concentrations, P. Aeruginosa ATCC 27853","[5]; ATCC 27853, pH 5.5",100 µM
same,"Minimal inhibitory concentrations, P. Aeruginosa ATCC 27853","[5]; ATCC 27853, pH 7.4",100 µM
same,"Minimal inhibitory concentrations, A. baumannii ATCC 19606","[6]; ATCC 19606, pH 5.5",>100 µM
same,"Minimal inhibitory concentrations, A. baumannii ATCC 19606","[6]; ATCC 19606, pH 7.4",100 µM
same,"Minimal inhibitory concentrations, S. aureus II ATCC 6538P","[7]; ATCC 6538, pH 5.5",100 µM
same,"Minimal inhibitory concentrations, S. aureus II ATCC 6538P","[7]; ATCC 6538, pH 7.4",100 µM
same,"Minimal inhibitory concentrations, E. Coli ATCC 25922","[8]; ATCC 25922, pH 5.5",100 µM
same,"Minimal inhibitory concentrations, E. Coli ATCC 25922","[8]; ATCC 25922, pH 7.4",100 µM
